This test has as its system HiNGT, EcNGT, ApNGT and ApNGT^Q469A. Type of test: biochemical.

With WGNWS, the “differential sequence preference in regard to N-glycosylation: which NGT modifies the sequence” value was “for EcNGT but not for HiNGT”.

(Values after US11898187B2 (priority 2017, dated 2024).)
